Assay [1] relates to indomethacin-induced gastric ulcers. Put plainly: Indomethacin-induced ulcer model, preventive treatment: gastric lesions. The format is in vivo, male Wistar rats. The arrangement: key to GA1 (gastroprotective activity calculated for number of lesions): GA1 = Pauls Index of control / Pauls Index of treated group; key to GA2 (gastroprotective activity calculated for lesion size): GA2 = Ulcer Index of control / Ulcer Index of treated group; key to Ulcer Index: UI = mean lesion area in group x % animals with lesions / 100; Small round Size / Total Size / Large round Size / Linear Size / Lesion Size: unit not given here. The note with it: for # Lesions / % Animals with Ulcers / GA1 (gastroprotective activity calculated for number of lesions) / GA2 (gastroprotective activity calculated for lesion size) / Lesion Size / PI / Ulcer Index / Large round Amount / Large round Size / Linear Amount / Linear Size / Small round Amount / Small round Size / Total Amount / Total Size: preventive; for Large round Amount / Large round Size / Linear Amount / Linear Size / Small round Amount / Small round Size / Total Amount / Total Size: indomethacin-induced ulcers. The procedure:
(§1) All studies were conducted on male Wistar rats weighing 220 ± 20 g, obtained from Rappolovo nursery (Leningrad oblast). For 14 days prior to the experiment, the animals were held in isolation. The animals were handled in accordance with the European Convention for the Protection of Vertebrate Animals used for Experimental and Other Scientific Purposes (Strasburg, 1986). The animals were held in standard plastic cages and fed a standard diet of PK120-3 (granulated feed in accordance with order # 1179 M3 USSR 10/10/1983) with a free access to water.
(§2) Animals' body weight changes were monitored throughout the experiment. The experimental animals were then sacrificed by decapitation, and their blood was collected in test tubes. The stomachs were extracted, dissected along the major curve, rinsed with cold saline solution, and the mucosa was carefully examined through a magnifying glass under bright lights. The mucosa was inspected for color, the presence of hyperemia and its intensity. The number of lesions, which were differentiated into small round (less than 1 mm), linear, and large lesions (more than 1mm) and the size of the area they covered were calculated. The average number of lesions per one animal in a group and the percentage of animals with ulcers were also calculated. Pauls Index (PI) was used as an integral indicator of the number of lesions and was calculated as follows: • PI = average number of lesions in a group x % of animals with lesions/100 [Pauls F., Wick A.M.,Mac. Key E.M. et al. An assau method for anti ulcer substances // Gastroenterology.- 1947. #8.- p.p.774 - 782]. Ulcer index UI was calculated as: UI = average lesion area size in the group x % of animals with lesions/100; gastroprotective activity GA1 was calculated as: GA1 = PI of the control group/PI of the experimental group, GA2 = UI of the control group/UI of the experimental group.
Five groups of 10 animals per group were prepared for the experiment as described in Example 1.
In each series of experiments, the animals were divided into experimental and control groups at 10 animals per group. The animals in the experimental group were orally administered the proposed medication or a comparator drug, and the control animals were given distilled water in the same amount. • control group received distilled water per os; • experimental group 1 received 0.1 mkg/kg N-isovaleroyl-L-glutamyl-L-tryptophan; • experimental group 2 received 10 mkg/kg N-isovaleroyl-L-glutamyl-L-tryptophan; • experimental group 3 received 200 mkg/kg of the comparator drug Sucralfate.
The efficacy of the course of preventive treatment with the claimed composition was evaluated 24 hrs. post indomethacin administration. The study was conducted as in Example 1.

Assay [2] has as its system stress-induced gastric ulcers. Put plainly: Water-immersion stress model: gastric lesions, preventive treatment. The format is in vivo, male Wistar rats. The note with it: 200 mg/kg + stress. Here is the method: as §1
In each series, the animals were divided into experimental and control groups with 10 rats per group. The animals in the experimental groups were orally administered the claimed preparation or a comparator drug, and the control group animals received distilled water in the same amount.
The experimental animals were divided into 5 groups, 10 animals each. The animals received the following therapy: • control group received distilled water per os; • experimental group 1 received 0.1 mkg/kg N-isovaleroyl-L-glutamyl-L-tryptophan; • experimental group 2 received 10 mkg/kg N-isovaleroyl-L-glutamyl-L-tryptophan; […]; • experimental group 4 received 50 mkg/kg of the comparator drug Misoprostol;
The experiment was conducted as follows: • The proposed drug, comparator drugs, and distilled water were administered once daily over 7 days, and on the day of the ulcerogenic stress induction one hour prior to the stress.
The rats deprived of food for 18 hrs. were placed into special cases and immersed in water vertically to the level of their xyphoids. The animals were held in this position for 5 hrs. at 23° C water temperature. After that, the animals were removed from the experiment.
as §2, with “group. The proposed drug was considered active when GA ≥ 2.” for “group.”

Setting [3] is: 0.1 mkg/kg + Indomethacin 20 mg/kg.
Setting [4] is: 10 mkg/kg + Indomethacin 20 mg/kg.

For the substance “N-isovaleroyl-L-glutamyl-L-tryptophan [VGT preparation]”, in assay [1] (setting [3]), the “# Lesions” value was 7.5 ± 1.0, the “% Animals with Ulcers” value was 100%, the “GA1 (gastroprotective activity calculated for number of lesions)” value is 2.84 and the “GA2 (gastroprotective activity calculated for lesion size)” value is 5.51. In assay [1] (setting [3]), the “Lesion Size” value is on record as 4.1 ± 0.9, the PI is listed as 7.5 and the “Ulcer Index” value is 4.1. Further, in assay [1] (0.1 mkg/kg), the “Large round Amount” value was 2.7 ± 0.5, the “Large round Size” value is reported as 1.4 ± 0.3, the “Linear Amount” value is 2.0 ± 0.7 and the “Linear Size” value is listed as 1.9 ± 0.7. Also, in assay [1] (0.1 mkg/kg), the “Small round Amount” value is 2.8 ± 0.7, the “Small round Size” value is 0.8 ± 0.2, the “Total Amount” value is listed as 7.5 ± 1.0 and the “Total Size” value is 4.1 ± 0.9. Moreover, in assay [1] (setting [4]), the “# Lesions” value is 8.3 ± 1.7, the “% Animals with Ulcers” value is on record as 100%, the “GA1 (gastroprotective activity calculated for number of lesions)” value is on record as 2.57 and the “GA2 (gastroprotective activity calculated for lesion size)” value is given as 5.51. In addition, in assay [1] (setting [4]), the “Lesion Size” value is 4.1 ± 1.6, the PI is recorded as 8.3 and the “Ulcer Index” value was 4.1. Also, in assay [1] (10.0 mkg/kg), the “Large round Amount” value is on record as 3.5 ± 0.9, the “Large round Size” value is recorded as 1.7 ± 0.6, the “Linear Amount” value is reported as 1.2 ± 0.5 and the “Linear Size” value is listed as 1.8 ± 1.1. Besides, in assay [1] (10.0 mkg/kg), the “Small round Amount” value was 3.6 ± 1.3, the “Small round Size” value is recorded as 0.5 ± 0.1, the “Total Amount” value is reported as 8.3 ± 1.7 and the “Total Size” value is 4.1 ± 1.6. In addition, in assay [1] (preventive treatment, indomethacin-induced lesions), the “size of the lesions in the gastric mucosa reduced” value is reported as 5 times.
Take “aluminum complex of beta-D-fructofuranosyl-alpha-D-glucopyranoside octakis (hydrosulfate) [Sucralfate]”: in assay [2], the “# Lesions” value worked out at 8.8 ± 1.4, the “% Animals with Ulcers” value stood at 90%, the “GA1 (gastroprotective activity calculated for number of lesions)” value is listed as 2.79 and the “GA2 (gastroprotective activity calculated for lesion size)” value is on record as 2.99. Besides, in assay [2], the “Large round Amt.” value worked out at 3.9 ± 0.8, the “Large round Size” value was determined as 2.4 ± 0.6, the “Lesion Size” value is on record as 7.5 ± 1.5 and the “Linear Amt.” value is given as 2.5 ± 0.6. In assay [2], the “Linear Size” value was found to be 4.5 ± 1.0, the “Pauls Index” value was determined as 7.92, the “Small round Amt.” value was 2.4 ± 0.7 and the “Small round Size” value was 0.7 ± 0.2. Further, in assay [2], the “Total Amt.” value was 8.8 ± 1.4, the “Total Size” value came to 7.5 ± 1.5 and the “Ulcer Index” value is 6.75.
